Results as given in the supplement of paper PMC10307832.

Tests used:
Assay in all cases: relative viability (nuclei count vs DMSO), 5 days (fraction); higher = more cells survive
[1] = tested on: 201T
Summary of the method: (§1)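 Cells from lung cancer lines were seeded into 1536-well plates and, one day later, dosed by pin tool. Treatments were either a single drug or a fixed dose of an anchor drug with five library-drug doses (not always all listed) in √10 steps. After 5 days, nuclei were stained in a one-step fixation (final 0.05% Triton X-100, 1% formaldehyde, 1 ug/ml Hoechst) and counted on 4× images, and relative viability is the treated-to-vehicle nuclei ratio, as the median of duplicate plates.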

[2] = tested on: A-427
Summary of the method: as §1

[3] = tested on: BEN
Summary of the method: as §1

[4] = tested on: COR-L 105
Summary of the method: as §1

[5] = tested on: COR-L23
Summary of the method: as §1

[6] = tested on: EKVX
Summary of the method: as §1

[7] = tested on: HARA
Summary of the method: as §1

[8] = tested on: HCC-15
Summary of the method: as §1

[9] = tested on: HCC-44
Summary of the method: as §1

[10] = tested on: HCC-827
Summary of the method: as §1

[11] = tested on: LK-2
Summary of the method: as §1

[12] = tested on: NCI-H1437
Summary of the method: as §1

[13] = tested on: NCI-H1666
Summary of the method: as §1

[14] = tested on: NCI-H1792
Summary of the method: as §1

[15] = tested on: NCI-H1975
Summary of the method: as §1

[16] = tested on: NCI-H23
Summary of the method: as §1

[17] = tested on: NCI-H358
Summary of the method: as §1

[18] = tested on: NCI-H441
Summary of the method: as §1

[19] = tested on: NCI-H596
Summary of the method: as §1

[20] = tested on: NCI-H650
Summary of the method: as §1

[21] = tested on: NCI-H838
Summary of the method: as §1

[22] = tested on: SK-MES-1
Summary of the method: as §1

## C=C1C(=O)O[C@@H](CCCCCCCC)[C@@H]1C(=O)O [C-75] + CS(=O)(=O)N1CCN(Cc2cc3nc(-c4cccc5[nH]ncc45)nc(N4CCOCC4)c3s2)CC1 [Pictilisib] (partner 1 µM)
[1]; first compound 0.08 µM
  relative viability: 0.697
[1]; first compound 0.253 µM
  relative viability: 0.782
[1]; first compound 0.8 µM
  relative viability: 0.628
[1]; first compound 2.53 µM
  relative viability: 0.673
[1]; first compound 8 µM
  relative viability: 0.719
[2]; first compound 0.08 µM
  relative viability: 0.786
[2]; first compound 0.253 µM
  relative viability: 0.75
[2]; first compound 0.8 µM
  relative viability: 0.626
[2]; first compound 2.53 µM
  relative viability: 0.62
[2]; first compound 8 µM
  relative viability: 0.718
[3]; first compound 0.08 µM
  relative viability: 0.541
[3]; first compound 0.253 µM
  relative viability: 0.651
[3]; first compound 0.8 µM
  relative viability: 0.538
[3]; first compound 2.53 µM
  relative viability: 0.553
[3]; first compound 8 µM
  relative viability: 0.443
[4]; first compound 0.08 µM
  relative viability: 0.437
[4]; first compound 0.253 µM
  relative viability: 0.422
[4]; first compound 0.8 µM
  relative viability: 0.469
[4]; first compound 2.53 µM
  relative viability: 0.432
[4]; first compound 8 µM
  relative viability: 0.343
[5]; first compound 0.08 µM
  relative viability: 0.663
[5]; first compound 0.253 µM
  relative viability: 0.865
[5]; first compound 0.8 µM
  relative viability: 0.78
[5]; first compound 2.53 µM
  relative viability: 0.609
[5]; first compound 8 µM
  relative viability: 0.693
[6]; first compound 0.08 µM
  relative viability: 0.436
[6]; first compound 0.253 µM
  relative viability: 0.448
[6]; first compound 0.8 µM
  relative viability: 0.426
[6]; first compound 2.53 µM
  relative viability: 0.458
[6]; first compound 8 µM
  relative viability: 0.452
[7]; first compound 0.08 µM
  relative viability: 0.413
[7]; first compound 0.253 µM
  relative viability: 0.432
[7]; first compound 0.8 µM
  relative viability: 0.375
[7]; first compound 8 µM
  relative viability: 0.585
[8]; first compound 0.08 µM
  relative viability: 0.739
[8]; first compound 0.253 µM
  relative viability: 0.761
[8]; first compound 0.8 µM
  relative viability: 0.654
[8]; first compound 2.53 µM
  relative viability: 0.666
[8]; first compound 8 µM
  relative viability: 0.725
[9]; first compound 0.08 µM
  relative viability: 0.65
[9]; first compound 0.253 µM
  relative viability: 0.599
[9]; first compound 0.8 µM
  relative viability: 0.558
[9]; first compound 2.53 µM
  relative viability: 0.622
[9]; first compound 8 µM
  relative viability: 0.644
[10]; first compound 0.08 µM
  relative viability: 0.954
[10]; first compound 0.253 µM
  relative viability: 0.95
[10]; first compound 0.8 µM
  relative viability: 1.14
[10]; first compound 2.53 µM
  relative viability: 0.694
[10]; first compound 8 µM
  relative viability: 0.915
[11]; first compound 0.08 µM
  relative viability: 0.444
[11]; first compound 0.253 µM
  relative viability: 0.662
[11]; first compound 0.8 µM
  relative viability: 0.555
[11]; first compound 2.53 µM
  relative viability: 0.461
[11]; first compound 8 µM
  relative viability: 0.396
[12]; first compound 0.08 µM
  relative viability: 0.489
[12]; first compound 0.253 µM
  relative viability: 0.402
[12]; first compound 0.8 µM
  relative viability: 0.464
[12]; first compound 2.53 µM
  relative viability: 0.472
[12]; first compound 8 µM
  relative viability: 0.491
[13]; first compound 0.08 µM
  relative viability: 0.49
[13]; first compound 0.253 µM
  relative viability: 0.555
[13]; first compound 0.8 µM
  relative viability: 0.295
[13]; first compound 2.53 µM
  relative viability: 0.41
[13]; first compound 8 µM
  relative viability: 0.346
[14]; first compound 0.08 µM
  relative viability: 0.312
[14]; first compound 0.253 µM
  relative viability: 0.268
[14]; first compound 0.8 µM
  relative viability: 0.293
[14]; first compound 2.53 µM
  relative viability: 0.261
[14]; first compound 8 µM
  relative viability: 0.343
[15]; first compound 0.08 µM
  relative viability: 0.286
[15]; first compound 0.253 µM
  relative viability: 0.282
[15]; first compound 0.8 µM
  relative viability: 0.278
[15]; first compound 2.53 µM
  relative viability: 0.326
[15]; first compound 8 µM
  relative viability: 0.347
[16]; first compound 0.08 µM
  relative viability: 0.459
[16]; first compound 0.253 µM
  relative viability: 0.686
[16]; first compound 0.8 µM
  relative viability: 0.416
[16]; first compound 2.53 µM
  relative viability: 0.475
[16]; first compound 8 µM
  relative viability: 0.311
[17]; first compound 0.08 µM
  relative viability: 0.365
[17]; first compound 0.253 µM
  relative viability: 0.348
[17]; first compound 0.8 µM
  relative viability: 0.312
[17]; first compound 2.53 µM
  relative viability: 0.326
[17]; first compound 8 µM
  relative viability: 0.361
[18]; first compound 0.08 µM
  relative viability: 0.473
[18]; first compound 0.253 µM
  relative viability: 0.536
[18]; first compound 0.8 µM
  relative viability: 0.403
[18]; first compound 2.53 µM
  relative viability: 0.418
[18]; first compound 8 µM
  relative viability: 0.38
[19]; first compound 0.08 µM
  relative viability: 0.406
[19]; first compound 0.253 µM
  relative viability: 0.39
[19]; first compound 0.8 µM
  relative viability: 0.229
[19]; first compound 2.53 µM
  relative viability: 0.39
[19]; first compound 8 µM
  relative viability: 0.438
[20]; first compound 0.08 µM
  relative viability: 0.864
[20]; first compound 0.253 µM
  relative viability: 0.825
[20]; first compound 0.8 µM
  relative viability: 0.801
[20]; first compound 2.53 µM
  relative viability: 0.815
[20]; first compound 8 µM
  relative viability: 0.883
[21]; first compound 0.08 µM
  relative viability: 0.43
[21]; first compound 0.253 µM
  relative viability: 0.376
[21]; first compound 0.8 µM
  relative viability: 0.444
[21]; first compound 2.53 µM
  relative viability: 0.386
[21]; first compound 8 µM
  relative viability: 0.478
[22]; first compound 0.08 µM
  relative viability: 0.339
[22]; first compound 0.253 µM
  relative viability: 0.374
[22]; first compound 0.8 µM
  relative viability: 0.374
[22]; first compound 2.53 µM
  relative viability: 0.373
[22]; first compound 8 µM
  relative viability: 0.346
